# Where “and” joins values, the source holds several entries; their conditions need not be identical. Equal entries are not always repeated. Toxic doses and inconclusive results are not listed.
# System: L1210 leukemia ip in BDF1 mice, survival T/C
# Assay: NCI In Vivo Anticancer Drug Screen. Data for tumor model L1210 Leukemia (intraperitoneal) in B6D2F1 (BDF1) mice
# Settings: endpoint: mean survival time, higher = longer survival
# Summary of the method: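 Mice bearing the transplanted tumor received compound or vehicle. Survival of the treated group was divided by that of the vehicle-treated control group to give the ratio.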
# [1] = dose: 100.0 mg/kg/injection, schedule: Q01DX009 (ip), vehicle: Klucel (hydroxypropylcellulose) (HPC)
# [2] = dose: 200.0 mg/kg/injection, schedule: Q01DX009 (ip), vehicle: Klucel (hydroxypropylcellulose) (HPC)
# [3] = dose: 400.0 mg/kg/injection, schedule: Q01DX009 (ip), vehicle: Klucel (hydroxypropylcellulose) (HPC)
smiles,measurement,setting,value
CNC(=N)c1ccc(NC(=N)c2ccc(NC(=O)Nc3ccc(C(=N)Nc4ccc(C(=N)NC)cc4)cc3)cc2)cc1,T/C,"dose: 0.25 mg/kg/injection, schedule: Q01DX Z (ip), vehicle: water",98 % of control
same,T/C,"dose: 0.5 mg/kg/injection, schedule: Q01DX Z (ip), vehicle: water",96 % of control
same,T/C,"dose: 1.0 mg/kg/injection, schedule: Q01DX Z (ip), vehicle: water",96 % of control
same,T/C,"dose: 1.87 mg/kg/injection, schedule: Q01DX Z (ip), vehicle: water",92 % of control
same,T/C,"dose: 2.0 mg/kg/injection, schedule: Q01DX Z (ip), vehicle: water",104 % of control
same,T/C,"dose: 3.75 mg/kg/injection, schedule: Q01DX Z (ip), vehicle: water",156 % of control
same,T/C,"dose: 7.0 mg/kg/injection, schedule: Q01DX Z (ip), vehicle: carboxymethylcellulose (CMC)",165 % of control
same,T/C,"dose: 7.5 mg/kg/injection, schedule: Q01DX Z (ip), vehicle: water",246 % of control
same,T/C,"dose: 10.0 mg/kg/injection, schedule: Q01DX Z (ip), vehicle: water",209 % of control
same,T/C,"dose: 14.0 mg/kg/injection, schedule: Q01DX Z (ip), vehicle: carboxymethylcellulose (CMC)",160 % of control
same,T/C,"dose: 25.0 mg/kg/injection, schedule: Q01DX Z (oral), vehicle: water",100 % of control
same,T/C,"dose: 50.0 mg/kg/injection, schedule: Q01DX Z (oral), vehicle: water",98 % of control
same,T/C,"dose: 100.0 mg/kg/injection, schedule: Q01DX Z (oral), vehicle: water",104 % of control
same,T/C,"dose: 200.0 mg/kg/injection, schedule: Q01DX Z (oral), vehicle: water",100 % of control
CC1CN=C(c2ccc(NC(=O)Nc3ccc(C(=O)Nc4ccc(C5=NCC(C)N5)cc4)cc3)cc2)N1 (centres undefined),T/C,"dose: 0.23 mg/kg/injection, schedule: Q01DX009 (ip), vehicle: saline",96 % of control
same,T/C,"dose: 0.94 mg/kg/injection, schedule: Q01DX009 (ip), vehicle: saline",96 % of control
same,T/C,"dose: 7.5 mg/kg/injection, schedule: Q01DX Z (ip), vehicle: saline",150 % of control
same,T/C,"dose: 15.0 mg/kg/injection, schedule: Q01DX Z (ip), vehicle: other",204 % of control
same,T/C,"dose: 15.0 mg/kg/injection, schedule: Q01DX Z (ip), vehicle: saline",277 % of control
same,T/C,"dose: 15.0 mg/kg/injection, schedule: Q01DX Z (oral), vehicle: saline",103 % of control
same,T/C,"dose: 30.0 mg/kg/injection, schedule: Q01DX Z (ip), vehicle: other",115 % of control
same,T/C,"dose: 30.0 mg/kg/injection, schedule: Q01DX Z (oral), vehicle: saline",103 % of control
same,T/C,"dose: 60.0 mg/kg/injection, schedule: Q01DX Z (oral), vehicle: saline",103 % of control
same,T/C,"dose: 120.0 mg/kg/injection, schedule: Q01DX Z (oral), vehicle: saline",102 % of control
Cn1cnc2nn[nH]c(=O)c21,T/C,[1],94 % of control
same,T/C,"dose: 100.0 mg/kg/injection, schedule: Q04DX003 (ip), vehicle: saline",92 % of control
same,T/C,[2],96 % of control
same,T/C,"dose: 200.0 mg/kg/injection, schedule: Q04DX003 (ip), vehicle: saline",92 % of control
same,T/C,[3],90 % of control
same,T/C,"dose: 400.0 mg/kg/injection, schedule: Q04DX003 (ip), vehicle: saline",95 % of control
NCc1c(Cl)cccc1[N+](=O)[O-],T/C,"dose: 50.0 mg/kg/injection, schedule: Q01DX009 (ip), vehicle: Klucel (hydroxypropylcellulose) (HPC)",96 % of control and 108 % of control
same,T/C,[1],96 % of control and 99 % of control and 101 % of control
same,T/C,"dose: 100.0 mg/kg/injection, schedule: Q04DX002 (ip), vehicle: Klucel (hydroxypropylcellulose) (HPC)",105 % of control
same,T/C,"dose: 100.0 mg/kg/injection, schedule: Q04DX002 (ip), vehicle: saline",102 % of control
same,T/C,[2],94 % of control and 104 % of control and 110 % of control
same,T/C,"dose: 200.0 mg/kg/injection, schedule: Q04DX002 (ip), vehicle: Klucel (hydroxypropylcellulose) (HPC)",100 % of control
same,T/C,"dose: 200.0 mg/kg/injection, schedule: Q04DX002 (ip), vehicle: saline",94 % of control
O=C(O)/C=C/c1ccccc1Br,T/C,"dose: 50.0 mg/kg/injection, schedule: Q01DX001 (ip), vehicle: saline",97 % of control
same,T/C,"dose: 100.0 mg/kg/injection, schedule: Q01DX001 (ip), vehicle: saline",91 % of control
same,T/C,[1],102 % of control
same,T/C,"dose: 200.0 mg/kg/injection, schedule: Q01DX001 (ip), vehicle: saline",94 % of control
same,T/C,[2],100 % of control
same,T/C,"dose: 400.0 mg/kg/injection, schedule: Q01DX001 (ip), vehicle: saline",97 % of control
same,T/C,[3],100 % of control

# — PubChem BioAssay AID248 (DTP/NCI, 2004)
